Reference: the supplement of paper PMC11451515

Tested on: NOMO1
Assay: cell viability relative to DMSO control; higher = less cytotoxic
Settings: 48 h
Method in brief: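 NOMO1 or SEM (500 cells/well) or P12-Ichikawa (1000 cells/well) leukemia cells were adapted for at least four passages in each medium. They were seeded in 1536-well plates (5 μl) and pin-dosed with library compounds in DMSO over an 11-point threefold series, 47 μM to 0.79 nM. CellTiter-Glo One luminescence was read after 48 h at 37°C. Viability is the per-plate percentage relative to DMSO wells, with cell-free wells as background.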

[1] = HPLM + 10% dialyzed FBS, 0.000781 µM
[2] = HPLM + 10% dialyzed FBS, 0.00234 µM
[3] = HPLM + 10% dialyzed FBS, 0.00702 µM
[4] = HPLM + 10% dialyzed FBS, 0.0211 µM
[5] = HPLM + 10% dialyzed FBS, 0.0632 µM
[6] = HPLM + 10% dialyzed FBS, 0.19 µM
[7] = HPLM + 10% dialyzed FBS, 0.569 µM
[8] = HPLM + 10% dialyzed FBS, 1.71 µM
[9] = HPLM + 10% dialyzed FBS, 5.12 µM
[10] = HPLM + 10% dialyzed FBS, 15.4 µM
[11] = HPLM + 10% dialyzed FBS, 46.1 µM
[12] = RPMI 5 mM glucose + 10% FBS, 0.000781 µM
[13] = RPMI 5 mM glucose + 10% FBS, 0.00234 µM
[14] = RPMI 5 mM glucose + 10% FBS, 0.00702 µM
[15] = RPMI 5 mM glucose + 10% FBS, 0.0211 µM
[16] = RPMI 5 mM glucose + 10% FBS, 0.0632 µM
[17] = RPMI 5 mM glucose + 10% FBS, 0.19 µM
[18] = RPMI 5 mM glucose + 10% FBS, 0.569 µM
[19] = RPMI 5 mM glucose + 10% FBS, 1.71 µM
[20] = RPMI 5 mM glucose + 10% FBS, 5.12 µM
[21] = RPMI 5 mM glucose + 10% FBS, 15.4 µM
[22] = RPMI 5 mM glucose + 10% FBS, 46.1 µM
[23] = RPMI 5 mM glucose + 10% dialyzed FBS, 0.000781 µM
[24] = RPMI 5 mM glucose + 10% dialyzed FBS, 0.00234 µM
[25] = RPMI 5 mM glucose + 10% dialyzed FBS, 0.00702 µM
[26] = RPMI 5 mM glucose + 10% dialyzed FBS, 0.0211 µM
[27] = RPMI 5 mM glucose + 10% dialyzed FBS, 0.0632 µM
[28] = RPMI 5 mM glucose + 10% dialyzed FBS, 0.19 µM
[29] = RPMI 5 mM glucose + 10% dialyzed FBS, 0.569 µM
[30] = RPMI 5 mM glucose + 10% dialyzed FBS, 1.71 µM
[31] = RPMI 5 mM glucose + 10% dialyzed FBS, 5.12 µM
[32] = RPMI 5 mM glucose + 10% dialyzed FBS, 15.4 µM
[33] = RPMI 5 mM glucose + 10% dialyzed FBS, 46.1 µM

CC1=C(C)C(=O)C(C(CCCCCC(=O)O)c2ccccc2)=C(C)C1=O (configuration not stated)
cell viability [1]: 75.8%
cell viability [2]: 78.1%
cell viability [3]: 83.4%
cell viability [4]: 93.9%
cell viability [5]: 93.6%
cell viability [6]: 109%
cell viability [7]: 53.4%
cell viability [8]: 97.9%
cell viability [9]: 27.8%
cell viability [10]: 27.1%
cell viability [11]: 13.5%
cell viability [12]: 68%
cell viability [13]: 82.7%
cell viability [14]: 70.7%
cell viability [15]: 74.7%
cell viability [16]: 74.9%
cell viability [17]: 79.3%
cell viability [18]: 76.1%
cell viability [19]: 80.4%
cell viability [20]: 19.6%
cell viability [21]: 22.3%
cell viability [22]: 12.5%
cell viability [23]: 75.6%
cell viability [24]: 78.9%
cell viability [25]: 75%
cell viability [26]: 87.7%
cell viability [27]: 83.7%
cell viability [28]: 84.2%
cell viability [29]: 86.4%
cell viability [30]: 78%
cell viability [31]: 25.1%
cell viability [32]: 27.4%
cell viability [33]: 15%

CCOC(=O)[C@@H](N)Cc1ccc(-c2cc(O[C@H](c3ccc(Cl)cc3-n3ccc(C)n3)C(F)(F)F)nc(N)n2)cc1.O=C(O)CNC(=O)c1ccccc1
cell viability [1]: 114%
cell viability [2]: 111%
cell viability [3]: 121%
cell viability [4]: 125%
cell viability [5]: 114%
cell viability [6]: 118%
cell viability [7]: 114%
cell viability [8]: 116%
cell viability [9]: 94.2%
cell viability [10]: 102%
cell viability [11]: 5.68%
cell viability [12]: 108%
cell viability [13]: 96.2%
cell viability [14]: 109%
cell viability [15]: 101%
cell viability [16]: 94.3%
cell viability [17]: 90.3%
cell viability [18]: 97.6%
cell viability [19]: 103%
cell viability [20]: 95.4%
cell viability [21]: 90.1%
cell viability [22]: 7.52%
cell viability [23]: 102%
cell viability [24]: 117%
cell viability [25]: 102%
cell viability [26]: 100%
cell viability [27]: 97%
cell viability [28]: 98.6%
cell viability [29]: 122%
cell viability [30]: 105%
cell viability [31]: 98.3%
cell viability [32]: 88.6%
cell viability [33]: 4.2%

CC(C)(O)CC[C@@H](O)[C@](C)(O)[C@H]1CC[C@@]2(O)C/3=C/C(=O)[C@@H]4C[C@@H](O)[C@@H](O)C[C@]4(C)[C@H]3CC[C@]12C
cell viability [1]: 111%
cell viability [2]: 98.6%
cell viability [3]: 110%
cell viability [4]: 86.8%
cell viability [5]: 84.6%
cell viability [6]: 98.5%
cell viability [7]: 98%
cell viability [8]: 103%
cell viability [9]: 87.4%
cell viability [10]: 94.9%
cell viability [11]: 81.7%
cell viability [12]: 87.9%
cell viability [13]: 97.3%
cell viability [14]: 86.9%
cell viability [15]: 83.8%
cell viability [16]: 93.2%
cell viability [17]: 91.9%
cell viability [18]: 91.2%
cell viability [19]: 88.6%
cell viability [20]: 80%
cell viability [21]: 84.2%
cell viability [22]: 83.1%
cell viability [23]: 108%
cell viability [24]: 110%
cell viability [25]: 108%
cell viability [26]: 95.2%
cell viability [27]: 105%
cell viability [28]: 91.6%
cell viability [29]: 105%
cell viability [30]: 90%
cell viability [31]: 86.2%
cell viability [32]: 88.1%
cell viability [33]: 94.4%

C[C@]12CCC(=O)C=C1CC[C@@H]1[C@@H]2[C@@H](O)C[C@@]2(C)[C@H]1CC[C@]2(O)C(=O)CO
cell viability [1]: 99%
cell viability [2]: 109%
cell viability [3]: 121%
cell viability [4]: 127%
cell viability [5]: 117%
cell viability [6]: 125%
cell viability [7]: 120%
cell viability [8]: 115%
cell viability [9]: 102%
cell viability [10]: 121%
cell viability [11]: 109%
cell viability [12]: 110%
cell viability [13]: 98.3%
cell viability [14]: 108%
cell viability [15]: 112%
cell viability [16]: 100%
cell viability [17]: 129%
cell viability [18]: 129%
cell viability [19]: 111%
cell viability [20]: 111%
cell viability [21]: 105%
cell viability [22]: 120%
cell viability [23]: 119%
cell viability [24]: 111%
cell viability [25]: 106%
cell viability [26]: 118%
cell viability [27]: 116%
cell viability [28]: 113%
cell viability [29]: 130%
cell viability [30]: 125%
cell viability [31]: 118%
cell viability [32]: 116%
cell viability [33]: 127%
